Experimental data taken from publication PMC11887673, “Malformin C preferentially kills glioblastoma stem‐like cells via concerted induction of proteotoxic stress and autophagic flux blockade” (Molecular Oncology, 2024).
Bridge positions count the residues as written; N and C are the ends. Square brackets hold non-standard residues; d marks the D form. Peptide text beside a SMILES is read from it.

Legend:
GSCs = assay: Cell viability, GSCs compared with normal or other cells; format: cell-based, human; conditions: 48 h, CellTiter-Glo
Source text: GSC lines NCH421k, NCH441, NCH644, NCH711d, and NCH705 were derived from newly diagnosed GB patients who underwent surgical resection according to the research proposals approved by the Institutional Review Board at the Medical Faculty of Heidelberg (license: Neurosurgery brain tissue 005/2003; samples collected between 2003 and 2010 at Heidelberg University Hospital from patients who gave informed written consent) and performed in accordance to the Declaration of Helsinki. The cells were cultivated in serum‐free stem cell medium up to maximum passage 60 as previously described. Human astrocytes originating from fetal cerebral cortex were purchased from ScienCell, Research Laboratories, Carlsbad, CA, USA (#1800) and cultured in DMEM (Sigma‐Aldrich, Steinheim, Germany) supplemented with 10% (v/v) FCS (Merck Millipore, Darmstadt, Germany), 1 mM sodium pyruvate, 1 × GlutaMAX, and 1 × N‐2 supplement (all Life Technologies, Darmstadt, Germany). Human fetal neural stem cells (HFNSCs) were kindly provided by Dr C Watts at the Department of Clinical Neurosciences, University of Cambridge. Tissue procurement was approved by the Cambridge Local Regional Ethics committee and in accordance with section 16(e) (ii) of the United Kingdom Human Tissue Act and the Declaration of Helsinki. They were established from 12‐ to 14‐week‐old human postmortem fetal tissue as described by Iovino et al. The cells were cultured as neurospheres in neural stem cell medium (DMEM/F‐12 medium, 2% (v/v) B27 supplement, at 20 ng·mL^−1 each of bFGF and EGF, 2.5 μg·mL^−1 heparin). BJ cells (RRID: CVCL_3653) (human fibroblasts) were purchased from ATCC and cultivated in DMEM low glucose supplemented with 10% FCS. […]
Cells were seeded in 96‐well plates at a density of 8500 cells per well. […] Cell viability was assessed by the CellTiter‐Glo® (Promega) luminescent cell viability assay. […] Data were normalized to the vehicle control, and four parameter logistic curves were fitted and IC50 values calculated using […] […]

NCH421k [1] = assay: Assessment of synergy, combination cell viability (CellTiter-Glo); format: cell-based, human
Procedure: NCH421k cells were seeded in 96‐well white plates with 8500 cells per well in 40 μL medium. To determine control curves, cells were treated with 50 μL of a 2× concentration of TMZ or CQ and 10 μL of medium and incubated for 48 h. For drug combinations, cells were treated with 10 μL of a 10× concentration of malformin C and with 50 μL of a 2× concentration of TMZ or CQ. Cell viability was determined after 48 h using the CellTiter‐Glo® assay according to the manufacturer's instructions. Synergy was determined using […] at https://synergyfinder.org/ [35].

[2] = system: primary astrocytes (pAstro); assay: Caspase 3/7 activation (Caspase Glo); format: cell-based, human; conditions: 50 nM, 8 h, n = 3
Procedure: (§1) A total of 5000 cells were seeded into white 96‐well plates in a volume of 50 μL medium. Malformin C or Az‐mal. C was added to the medium at the indicated concentrations and incubated for the indicated times. Caspase 3/7 activity was measured using the Caspase Glo assay (Promega), according to the manufacturer's protocol.

NCH421k [3] = assay: Caspase 3/7 activation (Caspase Glo); format: cell-based, human; conditions: 50 nM, within 6–8 h, n = 3
Procedure: as §1

NCH441 = assay: Caspase 3/7 activation (Caspase Glo); format: cell-based, human; conditions: 50 nM, within 6–8 h, n = 3
Procedure: as §1

fibroblasts (BJ) = assay: Caspase 3/7 activation (Caspase Glo); format: cell-based, human; conditions: 50 nM, 8 h, n = 3
Procedure: as §1

[4] = system: NOD scid gamma (NSG) mice; assay: Toxicity and tolerability of repeated doses; format: in vivo, mouse
Procedure: (§2) NCH421k GSCs were transduced with lentiviral particles carrying the pLenti PGK V5‐LUC Neo plasmid, which was a gift from Eric Campeau (Addgene plasmid # 21471) and transduced cells were selected using 400 μg·mL^−1 G418. Six‐week‐old female NOD.Cg‐Prkdc ^ scid Il2rg ^ tm1Wjl /SzJ (NOD‐SCIDγ) mice were obtained from the animal facility at the DKFZ. All animal experiments were performed according to animal welfare regulations and were approved by the responsible authorities (Regierungspräsidium Karlsruhe, approval number G289‐14). Animals were housed in a temperature‐controlled vivarium on a 12 h : 12 h light–dark cycle with ad libitum food and water, and all animals were monitored daily for health status and tumor‐related symptoms. […] Tumor growth was monitored using an IVIS Lumina Preclinical in vivo IMAGING SYSTEM AND LIVING IMAGE Software (version 2.50.1) (Perkin Elmer, Rodgau, Germany) and volume measurement using calipers once a week for 7 weeks, or until the tumor reached a volume of 500 mm^3.
(§3) Malformin C has been previously reported to induce fatal toxicity at doses of over 0.9 mg·kg^−1 in BDF1 mice, likely due to an acute inflammatory response. […] Seven days later, after engraftment of the cells was confirmed by the appearance of a luminescence signal, mice were treated with malformin C or DMSO (0.5 mg·kg^−1 3 × per week) for 37 days. […]

[5] = system: NCH421k GSCs expressing luciferase; assay: In vivo tumor propagation, flank xenograft; parameters: species or system NSG mice
Procedure: as §2, §3

BDF1 mice = conditions: cited from earlier work
Procedure: Malformin C has been previously reported to induce fatal toxicity at doses of over 0.9 mg·kg^−1 in BDF1 mice, likely due to an acute inflammatory response. […] In a pharmacokinetic study, malfo ...

[6] = Pharmacokinetics in plasma and blood brain barrier penetration after i.v. administration; format: in vivo; conditions: RjOrl:Swiss CD-1, mouse, iv, male CD-1 mice, 0.5 mg·kg^−1 i.v., LC–MS
Procedure: Pharmacokinetic (PK) parameters in plasma and blood brain barrier penetration after intravenous administration of malformin C were evaluated by Pharmacelsus GmbH. Nine adult male RjOrl : Swiss CD‐1 mice were injected i.v. with 0.5 mg·kg^−1 malformin C. K‐EDTA plasma was obtained from the retrobulbar venous plexus under isoflurane anesthesia. The plasma samples were prepared within 45 min after collection, frozen at −20 °C, and stored at this temperature until processed for LC–MS analysis. For brain collection, mice were sacrificed by cervical dislocation, immediately after the last blood sample was obtained. Brains were dissected, frozen, and stored at −20 °C. PK analysis was performed using […] 5.0 Software, Allersberg, Germany. All experimental procedures were approved by and conducted in accordance with the regulations of the local Animal Welfare authorities (Landesamt für Gesundheit und Verbraucherschutz, Abteilung Lebensmittel‐und Veterinärwesen, Saarbrücken).

Q: Which “loss of viability in GSCs compared with normal cells” value (shortened to “loss … compared with normal cells”) (GSCs) does the source give for tunicamycin here?
A: Its value is “not more sensitive than astrocytes”.

Q: With `CCN(CC)CCCC(C)Nc1ccnc2cc(Cl)ccc12` (stereo not shown) [CQ, chloroquine] as the compound, how does the “synergy with malformin C (SynergyFinder, ZIP synergy score)” value (NCH421k [1]) read?
A: The value was “much stronger”.

Q: And the inhibition at 23.7 µM (NCH421k [1]; Homo sapiens, 48 h, CQ 23.7 μM, Malformin C 0 nM, n = 3)?
A: Its inhibition at 23.7 µM is 17%.

Q: What about the inhibition at 31.6 µM (NCH421k [1]; Homo sapiens, 48 h, CQ 31.6 μM, Malformin C 0 nM, n = 3) of the same compound?
A: The inhibition at 31.6 µM was 32%.

Q: And the inhibition at 42.2 µM (NCH421k [1]; Homo sapiens, 48 h, CQ 42.2 μM, Malformin C 0 nM, n = 3)?
A: Its inhibition at 42.2 µM is 33%.

Q: What about the inhibition at 75 µM (NCH421k [1]; Homo sapiens, 48 h, CQ 75 μM, Malformin C 0 nM, n = 3) of the same compound?
A: Its inhibition at 75 µM is 99%.

Q: For `Cn1nnc2c(C(N)=O)ncn2c1=O` [TMZ, temozolomide], which “synergy with malformin C (SynergyFinder, ZIP synergy score)” value (NCH421k [1]) is on record?
A: Its value is “synergistic effect”.

Q: And the inhibition at 80 µM (NCH421k [1]; Homo sapiens, 48 h, TMZ 80 μM, Malformin C 0 nM, n = 3)?
A: Its inhibition at 80 µM is 2%.

Q: What about the inhibition at 160 µM (NCH421k [1]; Homo sapiens, 48 h, TMZ 160 μM, Malformin C 0 nM, n = 3) of the same compound?
A: Its inhibition at 160 µM is 6%.

Q: What about the inhibition at 310 µM (NCH421k [1]; Homo sapiens, 48 h, TMZ 310 μM, Malformin C 0 nM, n = 3) of the same compound?
A: The inhibition at 310 µM was 6%.

Q: What about the inhibition at 500 µM (NCH421k [1]; Homo sapiens, 48 h, TMZ 500 μM, Malformin C 0 nM, n = 3) of the same compound?
A: The inhibition at 500 µM was 22%.

Q: What about the inhibition at 1000 µM (NCH421k [1]; Homo sapiens, 48 h, TMZ 1000 μM, Malformin C 0 nM, n = 3) of the same compound?
A: The inhibition at 1000 µM was 47%.

Q: Which “loss … compared with normal cells” value (GSCs) does the source give for `CN[C@@H]1C[C@H]2O[C@@](C)([C@@H]1OC)n1c3ccccc3c3c4c(c5c6ccccc6n2c5c31)C(=O)NC4` [staurosporine] here?
A: Its value is “similarly”.

Q: For malformin A1, which “loss … compared with normal cells” value (GSCs) is on record?
A: Its value is “more potent against GSCs than normal cells”.

Q: Which “caspase 3/7 activation” value [2] does the source give for `CC(C)C[C@@H]1NC(=O)[C@@H](CC(C)C)NC(=O)[C@H](C(C)C)NC(=O)[C@H]2CSSC[C@@H](NC1=O)C(=O)N2` [malformin C] (cyclo(L[dC][dC]V[dL]); disulfide 2-3) here?
A: Its value is “not”.

Q: And the “caspase 3/7 activation” value (NCH421k [3])?
A: Its value is “significantly activated caspases”.

Q: What about the “caspase 3/7 activation” value (NCH441) of the same compound?
A: Its value is “significantly activated caspases”.

Q: And the “caspase 3/7 activation” value (fibroblasts (BJ))?
A: Its value is “not”.

Q: What about the tolerability ([4]; 0.5 mg·kg^−1 i.p. three times per week, NSG mice) of the same compound?
A: The tolerability was “tolerated well”.

Q: And the “repeated doses causing intolerable toxicity” value ([4]; immune-deficient NSG mice)?
A: Its value is “over 0.9 mg·kg^−1”.

Q: What about the “weights of the mice” value ([5]; 0.5 mg·kg^−1 i.p. 3 × per week, NSG mice, during the study) of the same compound?
A: Its value is “did not affect the weights of the mice”.

Q: And the “tumor growth (luminescence, caliper volume)” value ([5]; flank of NSG mice, 0.5 mg·kg^−1 i.p. 3 × per week for 37 days, monitored 49 days, n = 9 vs 8 DMSO)?
A: The value was “dramatically suppressed tumor growth”.

Q: And the “doses inducing fatal toxicity” value (BDF1 mice)?
A: Its value is “over 0.9 mg·kg^−1”.

Q: What about the level at time molar at 1 h ([6]; brain, by 1 h, read-out: equivalent molar concentration in the brain) of the same compound?
A: Its level at time molar at 1 h is about 1.9 nM.

Q: What about the half-life ([6]; K-EDTA plasma, n=3 mice per time point) of the same compound?
A: Its half-life is 5.8 h.
